Data from EP1673349B1, “BENZIMIDAZOLE DERIVATIVES: PREPARATION AND PHARMACEUTICAL APPLICATIONS” (priority 2003, dated 2005).
Like-named read-outs stand apart in the source and are kept apart here.

Assays:
HDAC8 enzyme = experiment: In vitro HDAC assay (BIOMOL fluorescent-based HDAC activity assay), HDAC8; type: biochemical, human; details: Table 3; read-out: HDAC8 Enzyme Activity IC50
Experimental: (§1) Expression of GST-HDAC1 or HTGST-HDAC8 was done by infecting SF9 cells (Invitrogen Pte Ltd) with pDEST20-HDAC1 or pFASTBAC-GST-HDAC8 baculovirus at MOI=1 for 48 h. Soluble cell lysate was incubated with pre-equilibrated Glutathione Sepharose 4B beads (Amersham) at 4°C for 2 h. The beads were washed with PBS buffer for 3 times. The GST-HDAC1 protein or GST-HDAC8 protein was eluted by elution buffer containing 50 mM Tris, pH8.0, 150mM NaCl, 1% Triton X-100 and 10mM or 20mM reduced Glutathione. The purified GST-HDAC1 protein or purified GST-HDAC8 protein was dialyzed with HDAC storage buffer containing 10mM Tris, pH7.5, 100mM NaCl and 3mM MgCl2. 20% Glycerol was added to purified GST-HDAC1 protein or purified GST-HDAC8 before storage at -80°C.
(§2) The assay has been carried, out in 96 well format and the BIOMOL fluorescent-based HDAC activity assay has been applied. […] Flur de lys Developer was added and the reaction was incubated for 10 min. Briefly, deacetylation of the substrate sensitizes it to the developer, which then generates a fluorophore (symbol). The fluorophore is excited with 360 nm light and the emitted light (460 nm) is detected on a fluorometric plate reader (Tecan Ultra Microplate detection system, Tecan Group Ltd.).
(§3) The analytical software, Prism 3.0 has been used to generate IC50 from a series of data.

Colo205 = experiment: Cell-based proliferation assay (cyquant), Colo205; parameters: species or system human; details: Table 4, 96 h treatment;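 note: Colo205 cells exposed for 96 h to a range of compound concentrations, growth read by CyQUANT, GI50 taken from plotted dose-response curves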
Experimental: (§4) Human colon cancer cell lines (Colo205 and HCT116), human breast cancer cell lines (MDA-MB435 and MDA-MB231), and human lung cancer cell line (A549) were obtained from ATCC. […] MDA-MB435 cells were cultivated in DMEM containing 2 mM L-Glutamine, 5% FBS. HCT116 cells were cultivated in IMEM containing 2 mM L-Glutamine, 5% FBS. A549 and Colo205 cells were seeded in 96-wells plate at 2000 and 5000 cells per well respectively. MDA-MB435, HCT116, MDA-MB231 cells were seeded in 96-wells plate at 6000 cells per well. The plates were incubated at 37°C, 5% CO2, for 24 h. Cells, were treated with compounds at various concentration for 96 h. Cell growth was then monitored using cyquant cell proliferation assay (Invitrogen Pte Ltd). Dose response curves were plotted to determine GI50 values for the compounds using XL-fist.

MDA-MB435 = experiment: Cell-based proliferation assay (cyquant), MDA-MB435; parameters: species or system human; details: Table 4, 96 h treatment;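 note: GI50 taken from dose–response curves over a range of compound concentrations, with cell growth quantified by the CyQUANT proliferation assay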
Experimental: as §4

HDAC1 enzyme = HDAC1 enzyme (Homo sapiens, UniProt Q13547); experiment: In vitro HDAC assay (BIOMOL fluorescent-based HDAC activity assay), HDAC1; type: biochemical; details: Table 3; read-out: HDAC1 Enzyme Activity IC50
Chain of HDAC1 enzyme (Q13547 whole entry): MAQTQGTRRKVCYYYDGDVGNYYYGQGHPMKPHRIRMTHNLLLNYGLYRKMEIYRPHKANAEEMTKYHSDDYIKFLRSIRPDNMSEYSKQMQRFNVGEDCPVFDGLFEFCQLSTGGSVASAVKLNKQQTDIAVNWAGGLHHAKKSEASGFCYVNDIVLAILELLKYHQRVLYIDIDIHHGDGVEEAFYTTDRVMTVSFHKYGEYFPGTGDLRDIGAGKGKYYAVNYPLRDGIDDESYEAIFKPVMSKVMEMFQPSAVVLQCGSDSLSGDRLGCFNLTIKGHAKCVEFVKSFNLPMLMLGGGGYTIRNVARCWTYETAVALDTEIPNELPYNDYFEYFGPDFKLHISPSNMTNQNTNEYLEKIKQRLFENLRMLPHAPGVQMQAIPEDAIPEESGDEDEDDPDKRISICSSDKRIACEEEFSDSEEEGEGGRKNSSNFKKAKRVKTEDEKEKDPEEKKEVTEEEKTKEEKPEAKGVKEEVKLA
Experimental: as §1, §2, §3

IC50 (HDAC8 enzyme) [nM] | IC50 (HDAC1 enzyme) [nM] | Structure (SMILES) | also measured
790 |  | COc1cc(-c2nc3cc(/C=C/C(=O)NO)ccc3n2CCCO)ccc1OCc1ccccc1 [Compound 4, N-Hydroxy-3-[2-(4-benzyloxy-3-methoxy-phenyl)-1-(3-hydroxy-propyl)-1H-benzimidazole-5-yl]-acrylamide] | GI50 (Colo205; Homo sapiens, COLO 205, 96 h): 29900 nM; GI50 (MDA-MB435; Homo sapiens, MDA-MB-435): 25.7 µM
401 |  | COc1ccc(-c2nc3cc(/C=C/C(=O)NO)ccc3n2CCO)cc1 [Compound 5, N-Hydroxy-3-[1-(2-hydroxy-ethyl)-2-(4-methoxy-phenyl)-1H-benzimidazole-5-yl]-acrylamide] | GI50 (Colo205; Homo sapiens, COLO 205): > 100000 nM
454 | 286 | O=C(/C=C/c1ccc2c(c1)nc(CCc1ccccc1)n2CC(O)CO)NO (stereo not drawn) [Compound 8] | 
883 |  | O=C(/C=C/c1ccc2c(c1)nc(-c1ccncc1)n2CCO)NO [Compound 10, N-Hydroxy-3-[1-(2-hydroxy-ethyl)-2-(4-pyridyl)-1H-benzimidazol-5-yl]-acrylamide] | 
161 |  | O=C(/C=C/c1ccc2c(c1)nc(-c1ccncc1)n2CCCO)NO [Compound 11, N-Hydroxy-3-[1-(3-hydroxy-propyl)-2-(4-pyridyl)-1H-benzimidazol-5-yl]-acrylamide] | GI50 (Colo205; Homo sapiens, COLO 205): > 100000 nM; GI50 (MDA-MB435; Homo sapiens, MDA-MB-435): > 100 µM
141 | 385 | O=C(/C=C/c1ccc2c(c1)nc(-c1ccccn1)n2CCCO)NO [Compound 13, N-Hydroxy-3-[1-(3-hydroxy-propyl)-2-(2-pyridyl)-1H-benzimidazol-5-yl]-acylamide] | 
313 | 206 | COCCCn1c(CCc2ccccc2)nc2cc(/C=C/C(=O)NO)ccc21 [Compound 15] | 
290 | 438 | O=C(/C=C/c1ccc2c(c1)nc(CCc1ccccc1)n2CCc1ccccn1)NO [Compound 18] | 
234 | 1330 | CC(C)Cc1nc2cc(/C=C/C(=O)NO)ccc2n1CCc1ccccn1 [Compound 22] | 
 |  | O=C(/C=C/c1ccc2c(c1)nc(CCc1ccccc1)n2CCc1ccccc1)NO [Compound 26, N-Hydroxy-3-(1,2-Diphenethyl-1H-benzimidazol-5-yl]-acylamide] | GI50 (Colo205; Homo sapiens, COLO 205, 96 h): 8790 nM; GI50 (MDA-MB435; Homo sapiens, MDA-MB-435): 6.67 µM
300 | 206 | O=C(/C=C/c1ccc2c(c1)nc(COCc1ccccc1)n2CCc1cccnc1)NO [Compound 28] | 
34000 | 49100 | CC(C)Cc1nc2cc(CCC(=O)NO)ccc2n1CCCO [Compound 29, N-Hydroxy-3-[1-(3-Hydroxy-propyl)-2-isobutyl-1H-benzimidazol-5-yl]-propionamide] | 
1890 | 2210 | O=C(O)CCn1c(CCc2ccccc2)nc2cc(/C=C/C(=O)NO)ccc21 [Compound 32, 3-[5-(2-Hydrocarbamoyl-vinyl)-2-phenethyl-benzimidazol-1-yl]-propionic acid] | 
846 |  | CC(C)Cc1nc2cc(/C=C/C(=O)NO)ccc2n1Cc1ccccc1 [Compound 34, N-Hydroxy-3-(1-Benzyl-2-isobutyl-1H-benzimidazol-5-yl)-acrylamide] | 
 |  | CCCn1cnc2cc(/C=C/C(=O)NO)ccc21 [Compound 37, N-Hydroxy-3-(1-propyl-1H-benzimidazol-5-yl)-acrylamide] | GI50 (Colo205; Homo sapiens, COLO 205): 7820 nM; GI50 (MDA-MB435; Homo sapiens, MDA-MB-435): 7.9 µM
 |  | CCn1c(CCc2ccccc2)nc2cc(/C=C/C(=O)NO)ccc21 [Compound 38, N-Hydroxy-3-(1-Ethyl-2-phenethyl-1H-benzimidazol-5-yl)-acrylamide] | GI50 (Colo205; Homo sapiens, COLO 205, 96 h): 1470 nM; GI50 (MDA-MB435; Homo sapiens, MDA-MB-435): 1.53 µM
 |  | CCn1cnc2cc(/C=C/C(=O)NO)ccc21 [Compound 39, N-Hydroxy-3-(1-Ethyl-1H-benzimidazol-5-yl)-acrylamide] | GI50 (Colo205; Homo sapiens, COLO 205, 96 h): 11700 nM; GI50 (MDA-MB435; Homo sapiens, MDA-MB-435): 12.1 µM
441 | 3300 | O=C(NO)c1ccc2c(c1)nc(CCc1ccccc1)n2CCCO [Compound 40, 1-(3-Hydroxy-prorpyl)-2-phenethyl-1H-benzimidazol-5-carboxylic acid hydroxyamide] | 
159 | 195 | CC(Cc1nc2cc(/C=C/C(=O)NO)ccc2n1CCc1cccnc1)c1ccccc1 (stereo not drawn) [Compound 41] | 
 |  | O=C(/C=C/c1ccc2c(c1)ncn2CCc1ccccn1)NO [Compound 42, N-Hydroxy-3-[1-(2-pyridin-2-yl-ethyl)-1H-benzimidazol-5-yl]-acrylamide] | GI50 (Colo205; Homo sapiens, COLO 205): 14400 nM; GI50 (MDA-MB435; Homo sapiens, MDA-MB-435): 15.8 µM
 | 167 | COc1cc(Cn2c(CCc3ccccc3)nc3cc(CCC(=O)NO)ccc32)cc(OC)c1OC [Compound 45] | GI50 (Colo205; read-out: GI50 (Colo 205)): 2410 nM; GI50 (MDA-MB435): 1.9 µM
 | 1670 | CC(C)c1nc2cc(/C=C/C(=O)NO)ccc2n1CCCO [Compound 46] | 
 |  | Cn1c(CCc2ccccc2)nc2cc(/C=C/C(=O)NO)ccc21 [Compound 48, N-Hydroxy-3-(1-methyl-2-phenethyl-1H-benzimidazol-5-yl)-acrylamide] | GI50 (Colo205; Homo sapiens, COLO 205, 96 h): 1450 nM; GI50 (MDA-MB435; Homo sapiens, MDA-MB-435): 1.78 µM
 |  | O=C(/C=C/c1ccc2[nH]c(CCc3ccccc3)nc2c1)NO [Compound 50, N-Hydroxy-3-(2-phenethyl-1H-benzimidazol-5-yl)-acrylamide] | GI50 (Colo205; Homo sapiens, COLO 205, 96 h): 4290 nM; GI50 (MDA-MB435; Homo sapiens, MDA-MB-435): 5.19 µM
 |  | Cn1c(CCCc2ccccc2)nc2cc(/C=C/C(=O)NO)ccc21 [Compound 52, N-Hydroxy-3-[1-methyl-2-(3-phenyl-propyl)-1H-benzimidazol-5-yl]-acrylamide] | GI50 (Colo205; Homo sapiens, COLO 205): 2040 nM; GI50 (MDA-MB435; Homo sapiens, MDA-MB-435): 3.58 µM

IC50 (HDAC8 enzyme) [nM] | IC50 (HDAC1 enzyme) [nM] | Structure (SMILES) | also measured
 | 158 | O=C(/C=C/c1ccc2c(c1)nc(CCc1ccccc1)n2CCCn1ccnc1)NO [Compound 56, N-Hydroxy-3-[1-(-3-imidazol-1-yl-propyl)-2-phenethyl-1H-benzimidazol-5-yl]-acrvlamide] | 
 |  | CN(C)CCCCn1c(CCc2ccccc2)nc2cc(/C=C/C(=O)NO)ccc21 [Compound 57, N-Hydroxy-3-[1-(4-dimethylamino-butyl)-2-phenethyl-1H-benzimidazol-5-yl]-acrylamide] | GI50 (Colo205; Homo sapiens, COLO 205, 96 h): 1110 nM; GI50 (MDA-MB435; Homo sapiens, MDA-MB-435): 1.39 µM
 |  | Cn1c(CNCc2ccccc2)nc2cc(/C=C/C(=O)NO)ccc21 [Compound 60, N-Hydroxy-3-[2-(benzylamino-methyl)-1-methyl-1H-benzimidazol-5-yl]-acrylamide] | GI50 (Colo205; Homo sapiens, COLO 205): 2470 nM; GI50 (MDA-MB435; Homo sapiens, MDA-MB-435): 3.6 µM
 | 196 | Cn1c(CN(Cc2ccccc2)Cc2ccccc2)nc2cc(/C=C/C(=O)NO)ccc21 [Compound 61] | 
 | 234 | COc1ccc(CNCc2nc3cc(/C=C/C(=O)NO)ccc3n2C)cc1 [Compound 62] | 
 |  | CN(C)CCCn1c(CCc2ccccc2)nc2cc(/C=C/C(=O)NO)ccc21 [Compound 63, N-Hydroxy-3-[1-(3-dimethylamino-propyl)-2-phenethyl-1H-benzimidazol-5-yl]-acrylamide] | GI50 (Colo205; Homo sapiens, COLO 205, 96 h): 2000 nM
255 |  | CCN(CC)CCn1c(CCc2ccccc2)nc2cc(/C=C/C(=O)NO)ccc21 [Compound 66, N-Hydroxy-3-[1-(2-diethylamino-ethyl)-2-phenethyl-1H-benzimidazol-5-yl]-acrylamide] | GI50 (Colo205; Homo sapiens, COLO 205, 96 h): 220 nM
 | 294 | CCn1c(CN(Cc2ccccc2)Cc2ccccc2)nc2cc(/C=C/C(=O)NO)ccc21 [Compound 68] | 
 | 146 | Cn1c(CNC(=O)Cc2ccc(F)cc2)nc2cc(/C=C/C(=O)NO)ccc21 [Compound 69] | 
 | 923 | CCn1c(CCNC(=O)Cc2ccccc2)nc2cc(/C=C/C(=O)NO)ccc21 [Compound 70] | GI50 (Colo205; read-out: GI50 (Colo 205)): 2900 nM
 | 167 | CCn1c(CCNS(=O)(=O)c2ccccc2)nc2cc(/C=C/C(=O)NO)ccc21 [Compound 71] | 
 | 560 | CCn1c(CCNC(=O)COc2ccccc2)nc2cc(/C=C/C(=O)NO)ccc21 [Compound 73] | 
 |  | CCn1c(CCNCc2ccccc2)nc2cc(/C=C/C(=O)NO)ccc21 [Compound 74, N-Hydroxy-3-[2-(2-benzylamino-ethyl)-1-ethyl-1H-benzimidazol-5-yl]-acrylamide] | GI50 (Colo205; Homo sapiens, COLO 205): 2070 nM
 |  | CC(C)(C)Cn1c(CCc2ccccc2)nc2cc(/C=C/C(=O)NO)ccc21 [Compound 75] | GI50 (Colo205; read-out: GI50 (Colo 205)): 2880 nM
 | 570 | O=C(/C=C/c1ccc2c(c1)nc(CCc1ccccc1)n2CCO)NO [Compound 77] | 
 | > 100000 | O=C(/C=C/c1ccc2c(c1)nc(CCc1ccccc1)n2CCCCCO)NO [Compound 78] | 
 | 1260 | C=CCn1c(CCc2ccccc2)nc2cc(/C=C/C(=O)NO)ccc21 [Compound 79] | 
 | 1690 | CC(C)OCCCn1c(CCc2ccccc2)nc2cc(/C=C/C(=O)NO)ccc21 [Compound 80] | 
 | 1600 | CN1CCN(CCCn2c(CCc3ccccc3)nc3cc(/C=C/C(=O)NO)ccc32)CC1 [Compound 81] | 
 |  | O=C(/C=C/c1ccc2c(c1)nc(CCc1ccccc1)n2CCCN1CCCC1)NO [Compound 82, N-Hydroxy-3-[2-phenethyl-1-(3-pyrrolidin-1-yl-propyl)-1H-benzimidazol-5-yl]-acrylamide] | GI50 (Colo205; Homo sapiens, COLO 205, 96 h): 720 nM
 | 71 | CN(C)CC(C)(C)Cn1c(CCCc2ccccc2)nc2cc(/C=C/C(=O)NO)ccc21 [Compound 83] | 
 | 54 | CN(C)CC(C)(C)Cn1c(CCc2ccc(F)cc2)nc2cc(/C=C/C(=O)NO)ccc21 [Compound 84] | 
 |  | CN(C)CC(C)(C)Cn1c(CCc2cccnc2)nc2cc(/C=C/C(=O)NO)ccc21 [Compound 86, N-Hydroxy-3-[1-(3-Dimethylamino-2,2-dimethyl-propyl)-2-(2-pyridin-3-yl-ethyl)-1H-benzimidazol-5-yl]acrylamide] | GI50 (Colo205; Homo sapiens, COLO 205): 13100 nM
 | 297 | COc1cc(Cn2c(CCc3ccccc3)nc3cc(C4CC4C(=O)NO)ccc32)cc(OC)c1OC (stereo not drawn) [Compound 88, 2-[2-Phenethyl-1-(3,4,5-trimethoxy-benzyl)-1H-benzimidazol-5-yl]-cyclopropanecarboxylic acid hydroxyamide] | GI50 (Colo205; Homo sapiens, COLO 205, 96 h): 1260 nM
 | 166 | O=C(/C=C/c1ccc2c(c1)ncn2CCN1CCCCC1)NO [Compound 90] | 

Structure (SMILES) | IC50 (HDAC8 enzyme) [nM] | IC50 (HDAC1 enzyme) [nM] | also measured
O=C(/C=C/c1ccc2c(c1)nc(CCc1ccccc1)n2C1CCN(Cc2ccccc2)CC1)NO [Compound 76] |  | 1030 | 
